Data as given in patent US20060069132A1, “Azolecarboxamide herbicides” (priority 2004, published 2006).

Legend:
barnyardgrass [1] = assay: Test A pre-/postemergence herbicide test; assay type: in vivo, Echinochloa crus-galli
Summary of the method: (§1)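 Visual injury rating on a 0–100 scale (0 no effect, 100 complete control) versus untreated controls, about ten days after treatment in greenhouse. Pre: directed soil spray onto seeded sandy loam. Post: spray to runoff on plants 2–10 cm tall at one- to two-leaf stage.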

large crabgrass [2] = assay: Test A pre-/postemergence herbicide test; assay type: in vivo, Digitaria sanguinalis
Summary of the method: as §1

giant foxtail [3] = assay: Test A pre-/postemergence herbicide test; assay type: in vivo, Setaria faberi
Summary of the method: as §1

morningglory [4] = assay: Test A pre-/postemergence herbicide test; assay type: in vivo, Ipomoea spp.
Summary of the method: as §1

redroot pigweed = assay: Test A pre-/postemergence herbicide test; assay type: in vivo, Amaranthus retroflexus
Summary of the method: as §1

velvetleaf [5] = assay: Test A pre-/postemergence herbicide test; assay type: in vivo, Abutilon theophrasti
Summary of the method: as §1

barnyardgrass [6] = assay: Test B pre-/postemergence herbicide test; assay type: in vivo, Echinochloa crus-galli; details: for Barnyardgrass plant response rating: postemergence
Summary of the method: (§2)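 Herbicidal effect was judged by eye on a 0–100 scale after plants stood 13 to 15 days in the greenhouse following pre- or postemergence treatment with surfactant-containing formulations.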

Surinam grass = assay: Test B pre-/postemergence herbicide test; assay type: in vivo, Urochloa decumbens; details: for Surinam Grass plant response rating: postemergence
Summary of the method: (§3)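 Plants compared with untreated controls 13–15 days post-treatment and given a visual 0–100 injury score. Applications: preemergence to seeds; postemergence at 1- to 4-leaf (2–18 cm); paddy species flooded, 2-leaf stage. Vehicle non-phytotoxic, surfactant included.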

cocklebur = assay: Test B pre-/postemergence herbicide test; assay type: in vivo, Xanthium strumarium; details: for Cocklebur plant response rating: postemergence
Summary of the method: as §2

corn = assay: Test B pre-/postemergence herbicide test; assay type: in vivo, Zea mays; details: for Corn plant response rating: postemergence
Summary of the method: as §3

large crabgrass [7] = assay: Test B pre-/postemergence herbicide test; assay type: in vivo, Digitaria sanguinalis; details: for Crabgrass, Large plant response rating: postemergence
Summary of the method: as §3

giant foxtail [8] = assay: Test B pre-/postemergence herbicide test; assay type: in vivo, Setaria faberi; details: for Foxtail, Giant plant response rating: postemergence
Summary of the method: as §3

lambsquarters = assay: Test B pre-/postemergence herbicide test; assay type: in vivo, Chenopodium album; details: for Lambsquarters plant response rating: postemergence
Summary of the method: as §3

morningglory [9] = assay: Test B pre-/postemergence herbicide test; assay type: in vivo, Ipomoea coccinea; details: for Morningglory plant response rating: postemergence
Summary of the method: as §2

pigweed = assay: Test B pre-/postemergence herbicide test; assay type: in vivo, Amaranthus retroflexus; details: for Pigweed plant response rating: postemergence
Summary of the method: as §3

rice [10] = assay: Test B pre-/postemergence herbicide test; assay type: in vivo, Oryza sativa; details: 0 = no effect, 100 = complete control, preemergence
Summary of the method: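 Greenhouse pot assay with simultaneous preemergence (treated seed) and postemergence (2–18 cm seedlings) applications of surfactant-containing, non-phytotoxic solvent formulations. Response scored visually 13–15 days later on a 0–100 scale, 100 meaning complete control.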

velvetleaf [11] = assay: Test B pre-/postemergence herbicide test; assay type: in vivo, Abutilon theophrasti; details: for Velvetleaf plant response rating: postemergence
Summary of the method: as §3

blackgrass = assay: Test B postemergence herbicide test; assay type: in vivo, Alopecurus myosuroides; details: postemergence
Summary of the method: (§4)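 Treated at 2-leaf (paddy) or 1–4-leaf, 2–18 cm (postemergence); greenhouse 13–15 d; visual score vs control, 0 none to 100 complete control; dash = not tested.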

wheat = assay: Test B postemergence herbicide test; assay type: in vivo, Triticum aestivum; parameters: key to Wheat plant response rating: 0 = no effect, 100 = complete control; details: postemergence
Summary of the method: (§5)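 Formulated test chemicals went onto postemergence plants measuring 2 to 18 cm, at one to four leaves. For the paddy assay, species had reached two leaves. Scoring took place 13–15 days later by eye, relative to untreated plants, using 0 for no effect up to 100 for full control.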

wild oat = assay: Test B postemergence herbicide test; assay type: in vivo, Avena fatua; details: postemergence
Summary of the method: as §5

rice [12] = assay: Test B flooded paddy test; assay type: in vivo, Oryza sativa; details: 1000 g ai/ha, scale 0 to 100 (0 no effect, 100 complete control)
Summary of the method: as §5

[13] = system: small flower umbrella sedge; assay: Test B flooded paddy test; assay type: in vivo, Cyperus difformis; details: 1000 g ai/ha, scale 0 to 100 (0 no effect, 100 complete control)
Summary of the method: as §4

ducksalad = assay: Test B flooded paddy test; assay type: in vivo, Heteranthera limosa; details: 1000 g ai/ha, scale 0 to 100 (0 no effect, 100 complete control)
Summary of the method: as §4

barnyardgrass [14] = assay: Test B flooded paddy test; assay type: in vivo, Echinochloa crus-galli; details: 1000 g ai/ha, scale 0 to 100 (0 no effect, 100 complete control)
Summary of the method: as §4

[15] = Postemergence, 500 g ai/ha, 0 to 100 scale, 0 no effect, 100 complete control
[16] = Postemergence, 2000 g ai/ha, 0 to 100 scale, 0 no effect, 100 complete control
[17] = Preemergence, 2000 g ai/ha, visual rating, 0 to 100 scale (0 no effect, 100 complete control)
[18] = preemergence, 500 g ai/ha, visual injury, 0 to 100 scale (0 no effect, 100 complete control)
[19] = 125 g ai/ha, 0 = no effect, 100 = complete control, preemergence
[20] = 500 g ai/ha, visual rating, 0 = no effect, 100 = complete control, preemergence
[21] = 125 g ai/ha, visual rating, scale 0 (no effect) to 100 (complete control)
[22] = 500 g ai/ha, scale 0 to 100, 0 is no effect, 100 is complete control

In the case of CCN(C)C(=O)c1ccc(F)c(NC(=O)c2cc(C(C)(C)C)nn2CC)n1 [Compound 280], the “Barnyardgrass plant response rating” value (barnyardgrass [1]; [15]) is reported as 0, the “Plant response rating, Barnyardgrass” value (barnyardgrass [1]; [16]) is reported as 25 and the “Barnyardgrass plant response rating” value (barnyardgrass [1]; [17]) is reported as 45. The “Barnyardgrass plant response rating” value (barnyardgrass [1]; [18]) was 0, the “Crabgrass, Large plant response rating” value (large crabgrass [2]; [15]) was 5 and the “Plant response rating, Crabgrass, Large” value (large crabgrass [2]; [16]) was 0. For the same compound, the “Crabgrass, Large plant response rating” value (large crabgrass [2]; [17]) was 25, the “Crabgrass, Large plant response rating” value (large crabgrass [2]; [18]) was 0 and the “Foxtail, Giant plant response rating” value (giant foxtail [3]; [15]) was 0. The “Plant response rating, Foxtail, Giant” value (giant foxtail [3]; [16]) was 0, the “Foxtail, Giant plant response rating” value (giant foxtail [3]; [17]) was 45 and the “Foxtail, Giant plant response rating” value (giant foxtail [3]; [18]) was 5. The “Morningglory plant response rating” value (morningglory [4]; [15]) was 0, the “Plant response rating, Morningglory” value (morningglory [4]; [16]) was 10 and the “Morningglory plant response rating” value (morningglory [4]; [17]) was 15. The “Morningglory plant response rating” value (morningglory [4]; [18]) was 0, the “Pigweed plant response rating” value (redroot pigweed; [15]) was 55 and the “Plant response rating, Pigweed” value (redroot pigweed; [16]) was 70. The “Pigweed plant response rating” value (redroot pigweed; [17]) was 90, the “Pigweed plant response rating” value (redroot pigweed; [18]) was 15 and the “Velvetleaf plant response rating” value (velvetleaf [5]; [15]) was 20. For the same compound, the “Plant response rating, Velvetleaf” value (velvetleaf [5]; [16]) was 30, the “Velvetleaf plant response rating” value (velvetleaf [5]; [17]) was 30 and the “Velvetleaf plant response rating” value (velvetleaf [5]; [18]) was 0. For the same compound, the “Barnyardgrass plant response rating (0 to 100 scale)” value (barnyardgrass [6]; [19]) was 0, the “Plant response rating, Barnyardgrass” value (barnyardgrass [6]; [20]) was 10 and the “Barnyardgrass plant response rating” value (barnyardgrass [6]; [21]) was 0. For the same compound, the “Barnyardgrass plant response rating” value (barnyardgrass [6]; [22]) was 0, the “Surinam Grass plant response rating (0 to 100 scale)” value (Surinam grass; [19]) was 0 and the “Plant response rating, Surinam Grass” value (Surinam grass; [20]) was 10. For the same compound, the “Surinam Grass plant response rating” value (Surinam grass; [21]) was 0, the “Surinam Grass plant response rating” value (Surinam grass; [22]) was 10 and the “Cocklebur plant response rating (0 to 100 scale)” value (cocklebur; [19]) was 0. The “Plant response rating, Cocklebur” value (cocklebur; [20]) was 0, the “Cocklebur plant response rating” value (cocklebur; [21]) was 0 and the “Cocklebur plant response rating” value (cocklebur; [22]) was 30. For the same compound, the “Corn plant response rating (0 to 100 scale)” value (corn; [19]) was 0, the “Plant response rating, Corn” value (corn; [20]) was 0 and the “Corn plant response rating” value (corn; [21]) was 0. The “Corn plant response rating” value (corn; [22]) was 10, the “Crabgrass, Large plant response rating (0 to 100 scale)” value (large crabgrass [7]; [19]) was 0 and the “Plant response rating, Crabgrass, Large” value (large crabgrass [7]; [20]) was 10. For the same compound, the “Crabgrass, Large plant response rating” value (large crabgrass [7]; [21]) was 0, the “Crabgrass, Large plant response rating” value (large crabgrass [7]; [22]) was 0 and the “Foxtail, Giant plant response rating (0 to 100 scale)” value (giant foxtail [8]; [19]) was 0. The “Plant response rating, Foxtail, Giant” value (giant foxtail [8]; [20]) was 10, the “Foxtail, Giant plant response rating” value (giant foxtail [8]; [21]) was 0 and the “Foxtail, Giant plant response rating” value (giant foxtail [8]; [22]) was 0. The “Plant response rating, Lambsquarters” value (lambsquarters; [20]) was 80, the “Lambsquarters plant response rating” value (lambsquarters; [21]) was 10 and the “Lambsquarters plant response rating” value (lambsquarters; [22]) was 20. The “Morningglory plant response rating (0 to 100 scale)” value (morningglory [9]; [19]) was 0, the “Plant response rating, Morningglory” value (morningglory [9]; [20]) was 0 and the “Morningglory plant response rating” value (morningglory [9]; [21]) was 0. For the same compound, the “Morningglory plant response rating” value (morningglory [9]; [22]) was 10, the “Pigweed plant response rating (0 to 100 scale)” value (pigweed; [19]) was 70 and the “Plant response rating, Pigweed” value (pigweed; [20]) was 100. The “Pigweed plant response rating” value (pigweed; [21]) was 10, the “Pigweed plant response rating” value (pigweed; [22]) was 20 and the “Rice plant response rating (0 to 100 scale)” value (rice [10]; 125 g ai/ha) was 0. For the same compound, the “Plant response rating, Rice” value (rice [10]; 500 g ai/ha, visual rating) was 10, the “Velvetleaf plant response rating (0 to 100 scale)” value (velvetleaf [11]; [19]) was 10 and the “Plant response rating, Velvetleaf” value (velvetleaf [11]; [20]) was 20. For the same compound, the “Velvetleaf plant response rating” value (velvetleaf [11]; [21]) was 10, the “Velvetleaf plant response rating” value (velvetleaf [11]; [22]) was 20 and the “Blackgrass plant response rating” value (blackgrass; [21]) was 20. For the same compound, the “Blackgrass plant response rating” value (blackgrass; [22]) was 20, the “Wheat plant response rating” value (wheat; [21]) was 20 and the “Wheat plant response rating” value (wheat; [22]) was 30. The “Oat, Wild plant response rating” value (wild oat; [21]) was 10, the “Oat, Wild plant response rating” value (wild oat; [22]) was 20 and the “Rice plant response rating” value (rice [12]) was 0. The “Sedge, Umbrella plant response rating” value [13] was 30, the “Ducksalad plant response rating” value (ducksalad) was 20 and the “Barnyardgrass plant response rating” value (barnyardgrass [14]) was 0.
